{"source": "paper PMC10794345", "about": "“Analysis of vascular disruption in zebrafish embryos as an endpoint to predict developmental toxicity” (Archives of Toxicology, 2023)", "key": {"[1]": {"test_system": "zebrafish embryos (wild-type strain OBI/WIK)", "assay": "ISV inhibition (angiogenesis) by video subtraction in wildtype zebrafish embryos", "format": "in vivo, zebrafish (D. rerio)", "conditions": "for IC50: Danio rerio, ± 95% confidence intervals, read-out: IC50 of ISV inhibition", "description": "A wild-type adult zebrafish strain (D. rerio, strain OBI/WIK, generation F3), originating from an in-house cross of zebrafish strains UFZ-OBI and WIK, was used for all experiments. The Tg(kdr:EGFP) strain was kindly provided by the University of Jena. Fish were fed twice daily with dry food (SDS-400, Special Diets Services, Essex England) and once daily with Artemia sp. […] Spawning trays were inserted 4–6 h before the end of the light cycle. The following day, spawning was initiated by the onset of light and eggs were collected within 1 h. Exposure in all experiment was ceased at 96 hpf.\n(§1) Exposure was conducted in rectangular 96-well microplates (Clear Polystyrene, flat bottom, Uniplate, Whatman, GE Healthcare) covered by a lid with a test volume of 400 µL of exposure media. For each replicate one embryo per well and 16 wells per concentration were assessed. Experiments were performed with at least two replicates on independent days and breeding.\nTo determine the number of ISVs in the trunk region, high-resolution images of 96 hpf-old zebrafish embryos were recorded using a Leica DM6B-Z microscope (Leica, Wetzlar, Germany) attached to the VAST imaging system, and a camera (Leica DFC9000 sCMOS, objective: HC APO L U-V-I 20x/0.50 WATER UV). A series of 20 images with a frame rate of 20 images per second and a 2 × 2 pixel binning was recorded in autofocus mode for each embryo.\nA series of MATLAB scripts (Supplement File ‘Workflow 3.m’ and ‘Workflow 4.m’) was used to convert the image series into a video and to visualize the blood vessel by applying a video subtraction approach (Figure SI1). Briefly, each video frame was subtracted from the average image of the whole image sequence and converted to a binary image by applying a Gaussian blur (σ = 5) and a threshold of 0.025 to obtain optimal contrast in binary images. Subsequently, the sum of all binary images was calculated. Due to movement of the blood cells the subtraction approach removed all parts from the image which were not moving resulting in an image of the blood vessels. This binary image of the blood vessel network in the zebrafish embryo tail was then processed with the FishInspector annotation software (version 1.70). […] The number of ISVs was obtained by application of a KNIME workflow to FishInspector annotation files. Subsequently concentration–response analysis was conducted using a KNIME workflow. The coefficient of variation (CV) of controls was calculated for both the subtraction and the fluorescence-based method by dividing the standard deviation of individual embryos with the control mean: CVControl=SD/Mean.\nThe assessment of lethality and morphological features was based on the percentage of embryos affected. Therefore, morphological endpoints were dichotomized, i.e. feature metrics were converted to the percentage of embryos deviating from controls. An embryo was considered to deviate when it was outside 1.5-fold of the standard deviation range of the mean of the control group. The control mean was determined by pooling control embryos across all experiments (n = 160) (available at git.ufz.de). For heart rate and angiogenesis (number of ISVs) the analysis was based on normalized values, i.e. for each experiment the values of the treatment were divided by the control value. The experiments were designed to calculate effect concentrations based on modelled curve fits. Different concentrations were used in at least two independent replicates, with means of each replicate based on the exposure of 16 different embryos per concentrations. Effect concentration were only modeled when three conditions were met. […] (2) The Akaike information criterion (AIC) for the log-logistic model was lower than the AIC for a linear model with slope 0 (lower p values for the letter would indicate that there is no trend in the data)."}, "[2]": {"test_system": "early life stage zebrafish", "conditions": "ref Tal et al. [2014]; read-out: EC50 for decreased ISV length; cited from earlier work"}, "[3]": {"test_system": "zebrafish embryos (wild-type strain OBI/WIK)", "assay": "Lethality of zebrafish embryos at 96 hpf", "format": "in vivo, zebrafish (D. rerio)", "conditions": "embryos exposed from 24 hpf, compared to exposure from 3 hpf", "description": "as §1, with “Fertilized and normally developed embryos were selected according to Kimmel et al. ([1995]) with a dissection microscope (Olympus SZx7-ILLT) at 1 hpf. Depending on experiment, exposure was started within 2–3 h post-fertilization (16–128 cell stages) or at 24 hpf. Exposure” for “Exposure”\n(§2) Concentration–response curves were fitted for lethality, heart rate, morphological features as previously described (Teixidó et al. [2019], [2022]). The assessment of lethality and morphological features was based on the percentage of embryos affected. Therefore, morphological endpoints were dichotomized, i.e. feature metrics were converted to the percentage of embryos deviating from controls. An embryo was considered to deviate when it was outside 1.5-fold of the standard deviation range of the mean of the control group. The control mean was determined by pooling control embryos across all experiments (n = 160) (available at git.ufz.de). For heart rate and angiogenesis (number of ISVs) the analysis was based on normalized values, i.e. for each experiment the values of the treatment were divided by the control value. The experiments were designed to calculate effect concentrations based on modelled curve fits. Different concentrations were used in at least two independent replicates, with means of each replicate based on the exposure of 16 different embryos per concentrations. Effect concentration were only modeled when three conditions were met. (1) The Tukey trend test based on the R package \"tukeytrend\" (Schaarschmidt et al. [2022]) was deriving a maximum p-value of 0.05. (2) The Akaike information criterion (AIC) for the log-logistic model was lower than the AIC for a linear model with slope 0 (lower p values for the letter would indicate that there is no trend in the data). (3) We calculated effect concentrations only if at least 30% of embryos for that endpoint were affected in at least one exposure concentration of (for normalized data) a reduction or increase by 30% was observed."}, "[4]": {"assay": "Lethality of zebrafish embryos at 96 hpf", "format": "in vivo, zebrafish (D. rerio)", "conditions": "OBI/WIK wild-type, zebrafish, in vivo, other: immersion of embryos in exposure media, 3–96 hpf exposure; ± 95% confidence intervals", "description": "as §1, with “Fertilized and normally developed embryos were selected according to Kimmel et al. ([1995]) with a dissection microscope (Olympus SZx7-ILLT) at 1 hpf. Depending on experiment, exposure was started within 2–3 h post-fertilization (16–128 cell stages) or at 24 hpf. Exposure” for “Exposure”\nas §2"}, "[5]": {"test_system": "zebrafish embryos (wild-type strain OBI/WIK)", "assay": "Morphological features and heart rate by automated imaging (VAST/FishInspector) at 96 hpf", "format": "in vivo, zebrafish (D. rerio)", "conditions": "96 hpf; listed as VPA", "description": "Automated imaging of zebrafish developmental phenotypes was conducted with the VAST BioImager (Union Biometrica, Gees, Belgium (Pardo-Martin et al. [2010]; Pulak [2016])) equipped with a large particle sampler (LP sampler, Union Biometrica). Lateral and dorsoventral images were obtained at 10 µm resolution at 96 hpf. Prior to imaging, all embryos were anesthetized by adding 20 µl tricaine solution ([…] tricaine, TRIS 26 mM, pH 7.5 ± 0.1) to each well of the microplate. Images were processed with an amended version (1.70, available via https://codebase.helmholtz.cloud/ufz/tb3-cite/biotox/FishInspector) of the FishInspector imaging software (Teixidó et al. [2019]). The FishInspector software allows to automatically annotate morphological features including body contour, eye, lower mouth tip, pericard, otoliths, notochord, swimbladder, and yolk and to calculate diverse metrics such as feature length, size, curvature indices, or angle between feature-connecting lines. In contrast to the previously published version, FishInspector 1.70 detects morphological features based on a deep learning approach using the Matlab Neural Network Toolbox and Matlab Image Processing Toolbox (Mathworks, Natick, […]). In addition, metric calculation was included into the software, and meta information such as test compound, exposure window or test concentration was associated to each image using a microplate layout file. To facilitate training of the models, two additional programs were generated in Matlab including FishTrainer 0.9 (for training of semantic segmentation models of structural features) and FishClassificator 0.9 (for training of position classes to be used in automated flipping of images) available via same repository as FishInspector software. For image training, image size was adjusted to 450 × 300 pixel to reduce computing time. This resolution was sufficient to detect the selected features (data not shown). For training of the deep learning models, approximately 3000 previously annotated images (Teixidó et al. [2022]) were used. The automated annotations were corrected by the user in the event that they were not adequately detecting visible structures. User-bias was avoided by a blinded assessment of images.\nFishInspector provided a JSON file corresponding to each image file containing the coordinates of all features and the applied smoothing factor. All images and videos used for this publication can be found at the BioImage Archive S-BIAD954 (https://www.ebi.ac.uk/biostudies/bioimages/studies/S-BIAD954). For each image, a csv file was generated containing calculated metrics. The software automatically provides a summary table containing metrics r of individual embryos. […] The analyzed file includes endpoint names based on the FishInspector software. […]"}}, "note": "“Also recorded” adds a separate entry of the source. Where two headings read alike, the source gives them in different places."}
{"smiles": "Clc1ccc(Nc2nnc(Cc3ccncc3)c3ccccc23)cc1", "note": "[PTK787]", "values": [{"measurement": "IC50", "setting": "[1]; 3–96 hpf exposure", "value": "90 ± 40", "unit": "nM"}, {"measurement": "IC50", "setting": "[1]; 24–96 hpf exposure", "value": "140 ± 30", "unit": "nM"}, {"measurement": "EC50", "setting": "[2]", "value": 170, "unit": "nM"}, {"measurement": "Mortality (in words)", "setting": "[3]", "value": "no"}, {"measurement": "LC50", "setting": "[4]", "value": "680 ± 510", "unit": "nM"}]}
{"smiles": "CCCC(CCC)C(=O)O", "note": "[Valproic acid]", "values": [{"measurement": "Effect on ISV formation (in words)", "setting": "[1]; tested concentration range up to 800 µM, negative control, listed as VPA", "value": "No effect; also recorded: no inhibition of ISVs formation was observed"}, {"measurement": "Morphological malformations (in words)", "setting": "[5]", "value": "craniofacial malformations were observed; also recorded: changes in head and jaw structures"}]}
